This note sets out measurements from US11505533B2, “Metabolically stable N-acylaminooxadiazoles useful as antibacterial agents” (MICROBIOTIX, INC., priority 2017, dated 2022).

The % Inhibition is how much of the control response was suppressed. Low readings indicate a weak effect, high ones a strong effect. As usually defined, the inhibition is the change of the read-out against control, counted positive when it falls.

Read-outs that look alike come from different tables or passages of the source.

Data set [1] has as its target T1, Adrenergic α1B (Rattus norvegicus, UniProt P15823).
T1 sequence (P15823 1-515): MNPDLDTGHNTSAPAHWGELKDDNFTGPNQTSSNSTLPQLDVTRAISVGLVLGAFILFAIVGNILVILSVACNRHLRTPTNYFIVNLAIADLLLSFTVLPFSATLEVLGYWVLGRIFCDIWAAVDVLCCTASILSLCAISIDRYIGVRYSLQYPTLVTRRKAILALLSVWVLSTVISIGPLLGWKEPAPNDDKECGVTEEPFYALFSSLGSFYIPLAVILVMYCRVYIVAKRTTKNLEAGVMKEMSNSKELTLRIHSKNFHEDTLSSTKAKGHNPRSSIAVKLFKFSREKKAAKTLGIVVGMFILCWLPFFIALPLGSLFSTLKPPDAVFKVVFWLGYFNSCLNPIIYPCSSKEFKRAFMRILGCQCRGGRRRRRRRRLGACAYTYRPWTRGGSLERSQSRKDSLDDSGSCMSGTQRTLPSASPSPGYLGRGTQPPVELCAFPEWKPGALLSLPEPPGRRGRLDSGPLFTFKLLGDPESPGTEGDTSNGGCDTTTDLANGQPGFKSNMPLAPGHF
Type of data set: binding. The conditions noted are these: for % Inhibition: 10 μM.

Data set [2] addresses T2, CYP450, 3A4 (Homo sapiens, UniProt P08684). The conditions noted are these: 10 µM.
Data set [3] relates to MRSA strain BAA-1717. Kind of data set: Neutropenic murine thigh model. Format: in vivo, mice. The conditions noted are these: 25 mg/kg PO once, 2 h after infection; CFU counts 24 hrs after dosing; n=4.
The target of data set [4] is T3, Muscarinic M2 (Homo sapiens, UniProt P08172).
T3 sequence (P08172 1-466): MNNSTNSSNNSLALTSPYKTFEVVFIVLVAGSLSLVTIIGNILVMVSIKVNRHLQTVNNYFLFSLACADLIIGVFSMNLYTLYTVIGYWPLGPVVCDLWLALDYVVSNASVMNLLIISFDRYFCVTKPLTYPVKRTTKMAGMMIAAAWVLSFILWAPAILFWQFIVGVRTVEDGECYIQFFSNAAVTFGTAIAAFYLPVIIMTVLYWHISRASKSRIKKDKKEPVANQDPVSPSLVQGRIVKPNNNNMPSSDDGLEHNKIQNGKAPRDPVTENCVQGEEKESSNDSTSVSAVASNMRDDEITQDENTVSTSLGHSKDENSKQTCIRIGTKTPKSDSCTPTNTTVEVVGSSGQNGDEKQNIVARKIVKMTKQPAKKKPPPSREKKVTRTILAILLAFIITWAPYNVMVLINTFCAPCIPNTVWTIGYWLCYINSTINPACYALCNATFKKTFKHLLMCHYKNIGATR
Format: binding. The conditions noted are these: for % Inhibition: 10 μM.

Data set [5] deals with T4, Potassium Channel hERG (Homo sapiens, UniProt Q12809). Particulars: 10 µM.
T4 sequence (Q12809 whole entry): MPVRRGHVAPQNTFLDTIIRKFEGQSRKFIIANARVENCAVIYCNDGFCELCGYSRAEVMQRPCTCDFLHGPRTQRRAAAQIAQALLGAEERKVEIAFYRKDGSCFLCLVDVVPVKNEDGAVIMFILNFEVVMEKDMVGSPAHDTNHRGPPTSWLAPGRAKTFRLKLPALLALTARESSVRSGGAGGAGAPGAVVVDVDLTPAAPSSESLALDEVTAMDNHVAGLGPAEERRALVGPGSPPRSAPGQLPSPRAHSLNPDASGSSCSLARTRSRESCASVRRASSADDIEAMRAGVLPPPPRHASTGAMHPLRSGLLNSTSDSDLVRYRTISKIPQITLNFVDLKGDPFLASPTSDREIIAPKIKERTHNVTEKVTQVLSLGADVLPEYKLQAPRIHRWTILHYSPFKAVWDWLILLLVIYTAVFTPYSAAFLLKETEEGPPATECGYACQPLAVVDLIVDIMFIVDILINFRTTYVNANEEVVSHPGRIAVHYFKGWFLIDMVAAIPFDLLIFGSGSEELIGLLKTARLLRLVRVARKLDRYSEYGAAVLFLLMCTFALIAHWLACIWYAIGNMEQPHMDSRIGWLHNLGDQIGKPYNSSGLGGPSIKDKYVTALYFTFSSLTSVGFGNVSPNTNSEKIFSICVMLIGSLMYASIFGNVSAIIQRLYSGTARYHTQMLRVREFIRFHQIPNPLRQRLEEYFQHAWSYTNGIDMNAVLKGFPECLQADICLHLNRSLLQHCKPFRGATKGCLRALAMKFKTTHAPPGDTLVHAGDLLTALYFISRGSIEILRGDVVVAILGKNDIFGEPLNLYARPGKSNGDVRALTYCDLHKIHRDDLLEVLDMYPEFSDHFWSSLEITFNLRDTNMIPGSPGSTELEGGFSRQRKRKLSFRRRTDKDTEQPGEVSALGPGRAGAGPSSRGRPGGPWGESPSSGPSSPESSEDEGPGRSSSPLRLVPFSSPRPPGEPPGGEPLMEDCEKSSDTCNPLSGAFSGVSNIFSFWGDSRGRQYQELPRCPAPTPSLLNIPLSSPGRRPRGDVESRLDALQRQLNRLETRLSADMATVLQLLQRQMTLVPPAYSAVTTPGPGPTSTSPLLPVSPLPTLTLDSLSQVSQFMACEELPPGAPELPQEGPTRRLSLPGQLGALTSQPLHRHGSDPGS
Data set [6] has as its target T5, CYP450, 1A2 (Homo sapiens, UniProt P05177).
T5 sequence (P05177 1-516): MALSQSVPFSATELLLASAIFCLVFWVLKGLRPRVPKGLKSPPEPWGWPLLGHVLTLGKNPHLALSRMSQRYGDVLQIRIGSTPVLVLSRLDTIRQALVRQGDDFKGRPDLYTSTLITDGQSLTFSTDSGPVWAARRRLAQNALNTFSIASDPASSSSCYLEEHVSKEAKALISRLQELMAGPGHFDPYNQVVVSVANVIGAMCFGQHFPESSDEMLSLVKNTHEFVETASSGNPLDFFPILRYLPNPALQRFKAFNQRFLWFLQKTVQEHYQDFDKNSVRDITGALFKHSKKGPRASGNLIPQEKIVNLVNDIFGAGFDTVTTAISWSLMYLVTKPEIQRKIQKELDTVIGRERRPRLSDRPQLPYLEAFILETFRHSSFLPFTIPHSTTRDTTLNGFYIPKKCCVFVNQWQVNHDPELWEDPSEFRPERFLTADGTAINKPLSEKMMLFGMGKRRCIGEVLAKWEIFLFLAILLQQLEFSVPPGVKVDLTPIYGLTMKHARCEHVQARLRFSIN
The conditions noted are these: 10 µM.

The target in data set [7] is T6, CYP450, 2C9 (Homo sapiens, UniProt P11712). The conditions noted are these: 10 µM.
T6 sequence (P11712 whole entry): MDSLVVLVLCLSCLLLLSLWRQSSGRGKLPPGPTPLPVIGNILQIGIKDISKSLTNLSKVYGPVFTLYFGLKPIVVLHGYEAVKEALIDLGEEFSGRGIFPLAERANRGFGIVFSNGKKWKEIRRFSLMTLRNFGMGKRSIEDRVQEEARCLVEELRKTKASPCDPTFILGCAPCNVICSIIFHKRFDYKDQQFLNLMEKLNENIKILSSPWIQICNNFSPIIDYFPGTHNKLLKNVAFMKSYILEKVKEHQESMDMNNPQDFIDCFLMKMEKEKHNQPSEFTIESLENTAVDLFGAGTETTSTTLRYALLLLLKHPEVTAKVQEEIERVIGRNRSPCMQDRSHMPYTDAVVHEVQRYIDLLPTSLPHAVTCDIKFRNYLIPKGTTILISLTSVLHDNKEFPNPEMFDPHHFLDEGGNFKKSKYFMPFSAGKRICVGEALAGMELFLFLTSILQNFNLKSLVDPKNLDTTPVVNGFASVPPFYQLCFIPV
The conditions of data set [8]: in vivo.
Data set [9] deals with T7, CYP450, 2D6 (Homo sapiens, UniProt P10635). Particulars: 10 µM.
T7 sequence (P10635 whole entry): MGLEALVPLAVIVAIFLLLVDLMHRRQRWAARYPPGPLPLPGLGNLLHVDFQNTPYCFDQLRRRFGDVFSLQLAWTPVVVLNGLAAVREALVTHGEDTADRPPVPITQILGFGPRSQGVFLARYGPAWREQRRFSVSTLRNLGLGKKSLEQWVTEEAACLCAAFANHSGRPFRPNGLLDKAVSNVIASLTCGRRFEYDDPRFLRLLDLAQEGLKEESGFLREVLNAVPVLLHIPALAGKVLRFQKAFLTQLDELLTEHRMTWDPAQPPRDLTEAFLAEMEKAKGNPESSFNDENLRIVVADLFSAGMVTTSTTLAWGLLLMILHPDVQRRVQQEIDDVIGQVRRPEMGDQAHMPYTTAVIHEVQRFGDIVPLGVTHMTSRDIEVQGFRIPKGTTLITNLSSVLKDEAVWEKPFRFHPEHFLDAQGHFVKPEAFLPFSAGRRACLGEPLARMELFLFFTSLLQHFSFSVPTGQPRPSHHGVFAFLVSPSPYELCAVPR
Data set [10] has as its target CYP3A4 (Homo sapiens, UniProt P08684).
In data set [11] the target is hERG potassium channel (Homo sapiens, UniProt Q12809).
hERG potassium channel, sequence (Q12809 whole entry): as the sequence (Q12809 whole entry) above
In data set [12] the target is CYP1A2 (Homo sapiens, UniProt P05177).
Data set [13] deals with CYP2C19 (Homo sapiens, UniProt P33261).
The target of data set [14] is CYP2C9 (Homo sapiens, UniProt P11712).
CYP2C9, sequence (P11712 whole entry): as the sequence (P11712 whole entry) above
The target in data set [15] is T7, CYP450, 2D6. Particulars: 10 μM.
The target in data set [16] is T2, CYP450, 3A4. Particulars: 10 μM.
The target of data set [17] is T4, Potassium Channel hERG. Particulars: 10 μM.
The target in data set [18] is T5, CYP450, 1A2. The conditions noted are these: 10 μM.
The target of data set [19] is CYP450, 2C19 (Homo sapiens, UniProt P33261). The conditions noted are these: 10 μM.
CYP450, 2C19, sequence (P33261 whole entry): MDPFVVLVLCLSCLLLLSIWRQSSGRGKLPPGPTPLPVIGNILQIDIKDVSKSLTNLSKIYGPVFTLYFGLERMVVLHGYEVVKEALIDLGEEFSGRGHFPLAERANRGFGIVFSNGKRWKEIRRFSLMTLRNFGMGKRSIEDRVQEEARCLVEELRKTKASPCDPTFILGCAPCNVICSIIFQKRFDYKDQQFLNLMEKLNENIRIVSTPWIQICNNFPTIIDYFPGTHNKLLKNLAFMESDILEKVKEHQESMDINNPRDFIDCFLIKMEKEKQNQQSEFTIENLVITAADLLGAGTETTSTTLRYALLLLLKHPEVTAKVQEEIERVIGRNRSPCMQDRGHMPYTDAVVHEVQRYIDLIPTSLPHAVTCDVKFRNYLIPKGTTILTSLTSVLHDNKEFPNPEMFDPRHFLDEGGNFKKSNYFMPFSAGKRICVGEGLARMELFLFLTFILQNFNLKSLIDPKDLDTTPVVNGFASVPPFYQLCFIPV
For data set [20], the target named is T6, CYP450, 2C9. Particulars: 10 μM.

T2 sequence (P08684 whole entry): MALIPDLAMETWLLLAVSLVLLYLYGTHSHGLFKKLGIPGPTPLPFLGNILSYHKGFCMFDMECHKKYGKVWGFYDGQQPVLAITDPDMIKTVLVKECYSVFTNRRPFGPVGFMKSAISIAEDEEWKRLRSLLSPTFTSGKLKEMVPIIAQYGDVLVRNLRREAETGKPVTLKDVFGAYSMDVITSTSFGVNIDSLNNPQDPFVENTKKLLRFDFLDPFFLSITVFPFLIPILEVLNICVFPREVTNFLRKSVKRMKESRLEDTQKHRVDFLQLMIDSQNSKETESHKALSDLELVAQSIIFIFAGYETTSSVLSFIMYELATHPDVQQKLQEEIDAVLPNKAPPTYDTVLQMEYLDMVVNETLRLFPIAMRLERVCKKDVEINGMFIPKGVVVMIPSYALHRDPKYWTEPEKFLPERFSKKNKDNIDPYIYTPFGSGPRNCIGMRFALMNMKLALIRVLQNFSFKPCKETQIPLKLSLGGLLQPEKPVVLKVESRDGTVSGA
CYP3A4, sequence (P08684 whole entry): as above

Regarding `O=C(Nc1nnc(-c2ccc(F)cc2)o1)N1CCc2ccccc2C1` [MBX-4132], the “% Inhibition” value in data set [1] worked out at 21%; in data set [2] it was 7%; in data set [4], 13%; in data set [5] it was 64%; in [6] it was 9%; in data set [7] it was 10%. Further, the “% Inhibition” value in data set [9] turned out to be 10%. The “drop in CFU/g compared to untreated controls” value in data set [3] was greater than 2 log CFU/g. Further, in [8], the “elevated single dose tolerability” value is “no effects distinct from vehicle controls”.
Turning to `O=C(Nc1nnc(-c2ccc(F)cc2)o1)c1ccc(Oc2ccccc2)nc1` [MBX-4237], the inhibition at 10 µM in data set [1] is -2%; in [10] it was 6%; in [4] it was 17%; in data set [11] it was 8%; in data set [12] it was 1%; in data set [13], 3%. Also, the inhibition at 10 µM in [14] came to 5%.
As for `O=C(Nc1nnc(-c2ccc(F)cc2)o1)c1ccc(OC2CCCCC2)cc1` [MBX-4292], the “% Inhibition” value in data set [15] is on record as 2%; in data set [1], 3%; in data set [16], 4%; in [4], 0%; in [17], 8%; in data set [18] it was 5%. Besides, the “% Inhibition” value worked out at 9% in data set [19] and 10% in data set [20].
Consider `O=C(Nc1nnc(-c2ccc(F)cc2)o1)N1CC=C(C(F)(F)F)CC1` [MBX-4347], for which the “% Inhibition” value in data set [15] was determined as 9%; in [1], 7%; in data set [16] it was 9%; in data set [4], 2%; in data set [17], 0%; in data set [18], 2%. Besides, the “% Inhibition” value in [19] is reported as 8%; in data set [20], 4%.
